Laboratory results: ChEMBL document CHEMBL1909046, “DrugMatrix in vitro pharmacology data”

Key:
[1] = biological target: T1, 3-hydroxy-3-methylglutaryl-coenzyme A reductase (Homo sapiens, UniProt P04035); parameters: species or system Escherichia coli;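 also: enzyme inhibition assay of HMG-CoA reductase using radiolabeled [14C]HMG-CoA as substrate; in other assays of this panel Not Active means under 50% inhibition at 10 µM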
T1 sequence (P04035 whole entry): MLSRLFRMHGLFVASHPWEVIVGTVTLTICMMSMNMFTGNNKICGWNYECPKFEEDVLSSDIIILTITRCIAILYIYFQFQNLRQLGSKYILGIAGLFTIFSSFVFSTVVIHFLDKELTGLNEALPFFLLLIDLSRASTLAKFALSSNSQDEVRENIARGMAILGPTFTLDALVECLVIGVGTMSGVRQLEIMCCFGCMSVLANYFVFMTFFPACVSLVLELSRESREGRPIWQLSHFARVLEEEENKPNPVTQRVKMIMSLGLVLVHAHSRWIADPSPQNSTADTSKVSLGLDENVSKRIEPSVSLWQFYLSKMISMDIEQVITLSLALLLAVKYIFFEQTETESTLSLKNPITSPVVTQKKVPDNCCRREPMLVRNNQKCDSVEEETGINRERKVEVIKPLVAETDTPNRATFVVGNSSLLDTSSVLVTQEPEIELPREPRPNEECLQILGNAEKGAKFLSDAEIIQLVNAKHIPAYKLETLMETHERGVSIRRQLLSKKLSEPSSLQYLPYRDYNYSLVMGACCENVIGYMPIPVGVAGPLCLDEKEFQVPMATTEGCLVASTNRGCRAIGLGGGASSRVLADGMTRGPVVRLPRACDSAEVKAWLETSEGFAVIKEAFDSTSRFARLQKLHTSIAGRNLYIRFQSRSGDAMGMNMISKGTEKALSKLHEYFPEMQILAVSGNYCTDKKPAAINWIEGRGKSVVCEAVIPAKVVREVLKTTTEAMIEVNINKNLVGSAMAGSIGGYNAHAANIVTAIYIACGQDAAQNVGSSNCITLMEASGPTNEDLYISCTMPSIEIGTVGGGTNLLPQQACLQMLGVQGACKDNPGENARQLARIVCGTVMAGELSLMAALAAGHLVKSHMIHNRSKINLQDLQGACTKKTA

Insulin receptor = Insulin receptor (Rattus norvegicus, UniProt P15127); assay type: cell membranes, Wistar, Liver, Membrane; also: in other assays of this panel Not Active means under 50% inhibition at 10 µM
[2] = DRUGMATRIX: Phosphodiesterase PDE4 enzyme inhibition (substrate: [3H]cAMP + cAMP); details: u-937; Not Active = under 50% inhibition at 10 µM
[3] = biological target: T2, Vasoactive intestinal polypeptide receptor 1 (Homo sapiens, UniProt P32241); assay type: cell membranes, Membrane; details: ht-29; also: in other assays of this panel Not Active means under 50% inhibition at 10 µM
T2 sequence (P32241 whole entry): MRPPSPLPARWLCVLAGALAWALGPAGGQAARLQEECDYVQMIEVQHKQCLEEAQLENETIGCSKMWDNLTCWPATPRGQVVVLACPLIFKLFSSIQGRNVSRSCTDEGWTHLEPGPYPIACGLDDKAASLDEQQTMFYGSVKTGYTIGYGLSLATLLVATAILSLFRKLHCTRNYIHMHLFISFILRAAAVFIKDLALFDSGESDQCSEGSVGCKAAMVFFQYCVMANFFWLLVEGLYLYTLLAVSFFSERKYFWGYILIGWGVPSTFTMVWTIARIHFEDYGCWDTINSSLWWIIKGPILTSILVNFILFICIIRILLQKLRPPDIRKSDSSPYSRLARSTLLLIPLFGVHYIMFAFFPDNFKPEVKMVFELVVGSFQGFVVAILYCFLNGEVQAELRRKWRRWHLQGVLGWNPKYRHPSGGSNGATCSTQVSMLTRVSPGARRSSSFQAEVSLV

[4] = biological target: Mitogen-activated protein kinase 1 (Homo sapiens, UniProt P28482); experiment: DRUGMATRIX: Protein Serine/Threonine Kinase, ERK2 enzyme inhibition (substrate: Myelin Basic Protein); parameters: species or system Escherichia coli; details: Not Active = under 50% inhibition at 10 µM
[5] = biological target: 5-hydroxytryptamine receptor 1B (Rattus norvegicus, UniProt P28564); assay type: cell membranes, Wistar, Cerebral cortex, Membrane; also: in other assays of this panel Not Active means under 50% inhibition at 10 µM
[6] = biological target: Sodium-dependent noradrenaline transporter (Homo sapiens, UniProt P23975); experiment: DRUGMATRIX: Norepinephrine Transporter radioligand binding (ligand: [125I] RTI-55); assay type: cell membranes, MDCK, Membrane; details: mdck; Not Active = under 50% inhibition at 10 µM
[7] = biological target: Tyrosine-protein kinase Fyn (Homo sapiens, UniProt P06241); experiment: biochemical; assay type: cell-based, Insect cells; details: insect cells
[8] = DRUGMATRIX: GABAA, Flunitrazepam, Central radioligand binding (ligand: [3H] Flunitrazepam); assay type: cell membranes, Rattus norvegicus, Wistar, Brain, Membrane; details: Not Active = under 50% inhibition at 10 µM
[9] = biological target: Beta-2 adrenergic receptor (Homo sapiens, UniProt P07550); experiment: DRUGMATRIX: Adrenergic beta2 radioligand binding (ligand: [3H] CGP-12177); assay type: cell membranes, Membrane; details: cho; Not Active = under 50% inhibition at 10 µM
Progesterone receptor = biological target: T3, Progesterone receptor (Bos taurus, UniProt Q690N0); experiment: DRUGMATRIX: Progesterone radioligand binding (ligand: [3H] R-5020); assay type: tissue-based, Uterus; details: Not Active = under 50% inhibition at 10 µM
T3 sequence (Q690N0 whole entry): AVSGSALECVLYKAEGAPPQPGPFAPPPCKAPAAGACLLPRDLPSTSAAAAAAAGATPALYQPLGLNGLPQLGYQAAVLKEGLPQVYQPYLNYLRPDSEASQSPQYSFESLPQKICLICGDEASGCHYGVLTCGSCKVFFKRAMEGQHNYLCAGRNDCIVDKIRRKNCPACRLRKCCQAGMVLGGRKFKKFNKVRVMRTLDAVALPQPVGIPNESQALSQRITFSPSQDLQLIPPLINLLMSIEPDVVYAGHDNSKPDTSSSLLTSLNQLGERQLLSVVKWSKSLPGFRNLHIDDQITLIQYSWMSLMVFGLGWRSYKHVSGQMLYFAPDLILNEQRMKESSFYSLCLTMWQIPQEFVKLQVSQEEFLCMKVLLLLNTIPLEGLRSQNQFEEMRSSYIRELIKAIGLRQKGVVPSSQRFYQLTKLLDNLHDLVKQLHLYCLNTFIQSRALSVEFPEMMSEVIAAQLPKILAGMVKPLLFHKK

[10] = DRUGMATRIX: Purinergic P2X radioligand binding (ligand: [3H] alpha, beta-Methylene-ATP); assay type: cell membranes, Oryctolagus cuniculus, New Zealand albino, Urinary bladder, Membrane; details: Not Active = under 50% inhibition at 10 µM

Sequence of Insulin receptor (P15127 27-759 limits assumed): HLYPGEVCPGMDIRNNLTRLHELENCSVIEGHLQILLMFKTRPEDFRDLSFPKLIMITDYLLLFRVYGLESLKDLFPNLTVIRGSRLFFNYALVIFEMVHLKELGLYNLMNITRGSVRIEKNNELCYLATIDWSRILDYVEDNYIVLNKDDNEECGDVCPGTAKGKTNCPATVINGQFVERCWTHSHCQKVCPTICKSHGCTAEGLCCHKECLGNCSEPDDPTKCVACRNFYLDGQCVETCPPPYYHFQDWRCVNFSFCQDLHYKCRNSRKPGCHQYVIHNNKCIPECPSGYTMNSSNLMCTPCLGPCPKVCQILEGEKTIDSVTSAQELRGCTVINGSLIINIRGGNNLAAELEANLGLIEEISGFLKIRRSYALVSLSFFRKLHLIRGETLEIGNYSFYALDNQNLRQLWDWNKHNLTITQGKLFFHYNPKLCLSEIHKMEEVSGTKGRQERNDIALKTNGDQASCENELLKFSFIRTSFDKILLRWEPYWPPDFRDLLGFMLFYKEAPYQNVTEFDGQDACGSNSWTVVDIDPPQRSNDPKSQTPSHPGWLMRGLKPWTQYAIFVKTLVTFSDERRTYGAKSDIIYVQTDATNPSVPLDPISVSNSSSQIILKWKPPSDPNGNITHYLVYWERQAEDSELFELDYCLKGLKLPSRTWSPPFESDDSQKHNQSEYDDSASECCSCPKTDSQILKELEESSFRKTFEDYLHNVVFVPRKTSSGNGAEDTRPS
Sequence of Insulin receptor (P15127 764-1383 limits assumed): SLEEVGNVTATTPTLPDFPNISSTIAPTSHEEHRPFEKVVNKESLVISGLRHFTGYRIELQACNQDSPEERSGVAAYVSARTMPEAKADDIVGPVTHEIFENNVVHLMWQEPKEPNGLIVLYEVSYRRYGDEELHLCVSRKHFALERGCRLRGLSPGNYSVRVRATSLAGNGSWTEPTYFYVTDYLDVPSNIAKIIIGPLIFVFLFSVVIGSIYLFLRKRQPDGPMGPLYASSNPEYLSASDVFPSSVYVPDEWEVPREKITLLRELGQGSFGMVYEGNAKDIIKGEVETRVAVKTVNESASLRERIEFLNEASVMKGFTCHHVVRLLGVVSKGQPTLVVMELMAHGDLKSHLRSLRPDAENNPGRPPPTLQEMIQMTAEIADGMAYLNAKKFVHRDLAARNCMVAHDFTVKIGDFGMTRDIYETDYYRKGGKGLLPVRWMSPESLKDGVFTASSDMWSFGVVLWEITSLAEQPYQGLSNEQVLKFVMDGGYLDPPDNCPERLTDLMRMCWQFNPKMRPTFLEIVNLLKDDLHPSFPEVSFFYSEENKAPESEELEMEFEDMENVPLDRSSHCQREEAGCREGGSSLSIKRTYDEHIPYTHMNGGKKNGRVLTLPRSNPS
Sequence of 5-hydroxytryptamine receptor 1B (P28564 whole entry): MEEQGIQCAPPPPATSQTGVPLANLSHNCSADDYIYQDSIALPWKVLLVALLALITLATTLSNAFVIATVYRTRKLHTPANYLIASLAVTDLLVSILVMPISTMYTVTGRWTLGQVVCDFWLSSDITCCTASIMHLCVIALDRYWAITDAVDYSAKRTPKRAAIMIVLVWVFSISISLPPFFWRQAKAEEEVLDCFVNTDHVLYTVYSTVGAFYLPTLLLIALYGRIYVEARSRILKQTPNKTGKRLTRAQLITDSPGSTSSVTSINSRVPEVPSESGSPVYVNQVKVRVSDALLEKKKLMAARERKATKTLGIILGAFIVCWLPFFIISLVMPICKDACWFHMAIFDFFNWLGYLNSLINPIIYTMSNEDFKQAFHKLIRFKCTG
Sequence of Beta-2 adrenergic receptor (P07550 whole entry): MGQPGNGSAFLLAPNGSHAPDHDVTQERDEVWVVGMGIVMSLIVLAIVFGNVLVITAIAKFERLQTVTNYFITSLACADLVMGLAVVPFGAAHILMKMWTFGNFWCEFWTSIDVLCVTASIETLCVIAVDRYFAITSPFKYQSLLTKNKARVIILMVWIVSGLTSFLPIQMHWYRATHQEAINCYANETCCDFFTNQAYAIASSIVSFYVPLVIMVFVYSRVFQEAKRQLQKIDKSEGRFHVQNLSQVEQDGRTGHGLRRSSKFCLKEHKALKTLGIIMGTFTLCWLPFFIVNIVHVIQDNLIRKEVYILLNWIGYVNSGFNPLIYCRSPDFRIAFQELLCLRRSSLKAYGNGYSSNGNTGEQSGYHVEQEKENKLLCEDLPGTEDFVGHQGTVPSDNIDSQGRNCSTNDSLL
Sequence of Sodium-dependent noradrenaline transporter (P23975 whole entry): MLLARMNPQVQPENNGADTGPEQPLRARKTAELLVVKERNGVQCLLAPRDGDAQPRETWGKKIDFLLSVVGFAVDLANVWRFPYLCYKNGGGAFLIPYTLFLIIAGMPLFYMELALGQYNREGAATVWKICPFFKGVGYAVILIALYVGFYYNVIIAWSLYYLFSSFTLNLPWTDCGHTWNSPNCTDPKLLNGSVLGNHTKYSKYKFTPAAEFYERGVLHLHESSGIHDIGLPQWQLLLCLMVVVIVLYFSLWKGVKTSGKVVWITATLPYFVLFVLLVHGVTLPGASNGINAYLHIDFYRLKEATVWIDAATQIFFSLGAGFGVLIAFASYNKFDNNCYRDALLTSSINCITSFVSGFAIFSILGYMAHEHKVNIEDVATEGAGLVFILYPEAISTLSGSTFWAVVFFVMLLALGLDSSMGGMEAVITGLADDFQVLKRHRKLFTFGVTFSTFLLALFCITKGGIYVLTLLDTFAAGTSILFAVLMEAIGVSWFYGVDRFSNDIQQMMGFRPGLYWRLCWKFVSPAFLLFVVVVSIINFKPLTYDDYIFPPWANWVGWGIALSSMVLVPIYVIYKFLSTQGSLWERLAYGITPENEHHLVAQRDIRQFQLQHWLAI
Sequence of Tyrosine-protein kinase Fyn (P06241 whole entry): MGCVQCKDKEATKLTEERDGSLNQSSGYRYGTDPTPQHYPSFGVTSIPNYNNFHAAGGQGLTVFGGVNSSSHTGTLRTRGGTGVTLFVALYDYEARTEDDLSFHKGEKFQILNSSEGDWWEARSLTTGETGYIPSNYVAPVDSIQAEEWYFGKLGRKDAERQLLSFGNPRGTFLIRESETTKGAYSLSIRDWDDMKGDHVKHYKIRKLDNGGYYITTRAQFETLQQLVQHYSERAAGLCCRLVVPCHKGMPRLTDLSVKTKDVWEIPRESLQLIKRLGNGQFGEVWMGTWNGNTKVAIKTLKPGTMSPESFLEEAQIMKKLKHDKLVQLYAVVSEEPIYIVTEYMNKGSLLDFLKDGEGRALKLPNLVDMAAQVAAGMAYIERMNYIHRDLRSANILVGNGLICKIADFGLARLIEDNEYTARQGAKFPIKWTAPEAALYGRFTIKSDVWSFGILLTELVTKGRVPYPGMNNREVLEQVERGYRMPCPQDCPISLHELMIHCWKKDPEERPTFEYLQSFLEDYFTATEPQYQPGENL
Sequence of Mitogen-activated protein kinase 1 (P28482 whole entry): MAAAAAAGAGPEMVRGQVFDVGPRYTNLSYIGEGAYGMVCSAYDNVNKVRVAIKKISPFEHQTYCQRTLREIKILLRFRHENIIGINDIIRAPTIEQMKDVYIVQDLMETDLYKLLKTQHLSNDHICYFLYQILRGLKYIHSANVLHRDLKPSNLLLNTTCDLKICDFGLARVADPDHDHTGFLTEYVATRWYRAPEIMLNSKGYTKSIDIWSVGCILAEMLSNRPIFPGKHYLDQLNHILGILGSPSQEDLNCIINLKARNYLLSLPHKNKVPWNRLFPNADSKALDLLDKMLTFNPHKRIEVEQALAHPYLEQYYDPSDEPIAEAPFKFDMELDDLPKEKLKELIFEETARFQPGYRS

NCC[C@H](O)C(=O)N[C@@H]1C[C@H](N)[C@@H](O[C@H]2O[C@H](CN)[C@@H](O)[C@H](O)[C@H]2O)[C@H](O)[C@H]1O[C@H]1O[C@H](CO)[C@@H](O)[C@H](N)[C@H]1O [AMIKACIN]
Not Active: IC50 [1] | IC50 (Insulin receptor) | IC50 [2] | Ki [2] | IC50 [3] | IC50 [4] | IC50 [5] | IC50 [6] | IC50 [7] | IC50 [8] | Ki [8] | IC50 [9] | IC50 (Progesterone receptor) | IC50 [10] | Ki [10]

CC1(C)S[C@@H]2[C@H](NC(=O)[C@H](N)c3ccc(O)cc3)C(=O)N2[C@H]1C(=O)O [AMOXICILLIN]
Not Active: IC50 [1] | IC50 (Insulin receptor) | IC50 [2] | Ki [2] | IC50 [3] | IC50 [4] | IC50 [5] | IC50 [6] | IC50 [7] | IC50 [8] | Ki [8] | IC50 [9] | IC50 (Progesterone receptor) | IC50 [10] | Ki [10]

CCOC(=O)OC(C)OC1=C(C(=O)Nc2ccccn2)N(C)S(=O)(=O)c2ccccc21 (stereo not given) [AMPIROXICAM]
Not Active: IC50 [1] | IC50 (Insulin receptor) | IC50 [2] | Ki [2] | IC50 [3] | IC50 [4] | IC50 [5] | IC50 [6] | IC50 [7] | IC50 [8] | Ki [8] | IC50 [9] | IC50 (Progesterone receptor) | IC50 [10] | Ki [10]

N#C[C@H](O[C@@H]1O[C@H](CO[C@@H]2O[C@H](CO)[C@@H](O)[C@H](O)[C@H]2O)[C@@H](O)[C@H](O)[C@H]1O)c1ccccc1 [AMYGDALIN]
Not Active: IC50 [1] | IC50 (Insulin receptor) | IC50 [2] | Ki [2] | IC50 [3] | IC50 [4] | IC50 [5] | IC50 [6] | IC50 [7] | IC50 [8] | Ki [8] | IC50 [9] | IC50 (Progesterone receptor) | IC50 [10] | Ki [10]

N=C(N)NCCCCNC(=N)N.O=S(=O)(O)O [ARCAINE SULFATE]
Not Active: IC50 [1] | IC50 (Insulin receptor) | IC50 [2] | Ki [2] | IC50 [3] | IC50 [4] | IC50 [5] | IC50 [6] | IC50 [7] | IC50 [8] | Ki [8] | IC50 [9] | IC50 (Progesterone receptor) | IC50 [10] | Ki [10]

C=C1[C@@H]2CCC3[C@@](CC[C@@H]4[C@H](C(=O)O)C[C@@H](O[C@@H]5O[C@H](CO)[C@@H](OS(=O)(=O)[O-])[C@H](OS(=O)(=O)[O-])[C@H]5OC(=O)CC(C)C)C[C@@]34C)(C2)[C@@H]1O.[K+].[K+] (stereo not given in full) [ATRACTYLOSIDE]
Not Active: IC50 [1] | IC50 (Insulin receptor) | IC50 [2] | Ki [2] | IC50 [3] | IC50 [4] | IC50 [5] | IC50 [6] | IC50 [7] | IC50 [8] | Ki [8] | IC50 [9] | IC50 (Progesterone receptor) | IC50 [10] | Ki [10]

Cn1cnc([N+](=O)[O-])c1Sc1ncnc2nc[nH]c12 [AZATHIOPRINE]
Not Active: IC50 [1] | IC50 (Insulin receptor) | IC50 [2] | Ki [2] | IC50 [3] | IC50 [4] | IC50 [5] | IC50 [6] | IC50 [7] | IC50 [8] | Ki [8] | IC50 [9] | IC50 (Progesterone receptor) | IC50 [10] | Ki [10]

CC1(C)S[C@@H]2[C@H](NC(=O)[C@H](NC(=O)N3CCNC3=O)c3ccccc3)C(=O)N2[C@H]1C(=O)O [AZLOCILLIN]
Not Active: IC50 [1] | IC50 (Insulin receptor) | IC50 [2] | Ki [2] | IC50 [3] | IC50 [4] | IC50 [5] | IC50 [6] | IC50 [7] | IC50 [8] | Ki [8] | IC50 [9] | IC50 (Progesterone receptor) | IC50 [10] | Ki [10]

CCOC(=O)c1ccc(N)cc1 [BENZOCAINE]
Not Active: IC50 [1] | IC50 (Insulin receptor) | IC50 [2] | Ki [2] | IC50 [3] | IC50 [4] | IC50 [5] | IC50 [6] | IC50 [7] | IC50 [8] | Ki [8] | IC50 [9] | IC50 (Progesterone receptor) | IC50 [10] | Ki [10]

OCc1ccccc1 [BENZYL ALCOHOL]
Not Active: IC50 [1] | IC50 (Insulin receptor) | IC50 [2] | Ki [2] | IC50 [3] | IC50 [4] | IC50 [5] | IC50 [6] | IC50 [7] | IC50 [8] | Ki [8] | IC50 [9] | IC50 (Progesterone receptor) | IC50 [10] | Ki [10]
